Assay [1] concerns GLXMA (Soybean). Nature of the assay: Postemergence herbicidal evaluation. The assay is classed as in vivo, Glycine max. An outline of the steps: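 ~2-wk seedlings; postemergence spray, 40 psi; vehicle 1:1 acetone:water + 0.5% Tween 20; rate ≈0.0156–0.500 kg/ha; greenhouse hold; scored 4–5 wk after treatment, 0–9 scale vs control; repeat tests averaged.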
Assay [2] has as its system IPOSS (Morningglory Spp.). Nature of the assay: Preemergence herbicidal evaluation. The note with it: rated 4-5 weeks after treatment. The assay is classed as in vivo, Ipomoea Spp. An excerpt: (§1) Results of herbicide evaluation are expressed on a rating scale (0-9). The scale is based upon a visual observation of plant stand, vigor, malformation, size, chlorosis and overall plant appearance as compared with a control.
(§2) The preemergence herbicidal activity of the test compounds of the present invention is exemplified by the following tests in which the seeds of a variety of monocotyledonous and dicotyledonous plants are separately mixed with potting soil and planted on top of approximately one inch of soil in separate pint cups. After planting, the cups are sprayed with the selected aqueous acetone solution containing test compound in sufficient quantity to provide the equivalent of about 0.0156 to 0.500 kg per hectare of test compound per cup. The treated cups are then placed on greenhouse benches, watered and cared for in accordance with conventional greenhouse procedures. From four to five weeks after treatment, the tests are terminated and each cup is examined and rated according to the rating system provided in Example 37.
(§3) The compounds evaluated are reported by compound number given in Example 37.

The subject of assay [3] is ECHORC (Watergrass (Calif.)). The assay is described as follows: Postemergence weed control under flooded paddy conditions. The assay is classed as in vivo, Echinochloa oryzoides. The note with it: postemergence weeds. An outline of the steps:
(§4)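 Flood-water application, about 0.0313–0.500 kg/ha a.i. in aqueous/acetone 50/50 v/v; water depth 1.5–3 cm throughout. Weeds 3–5 cm, rice 1.5–2.5 leaf. Greenhouse; 0–9 visual rating vs control at 3–4 wk.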

Assay [4] relates to IPOSS (Morningglory Spp.). The assay is described as follows: Postemergence herbicidal evaluation. The assay is classed as in vivo, Ipomoea Spp. The procedure:
In the tests, seedling plants are grown in jiffy flats for about two weeks. The test compounds are dispersed in 50/50 acetone/water mixtures containing 0.5% TWEEN®20, a polyoxyethylene sorbitan monolaurate surfactant of Atlas Chemical Industries, in sufficient quantities to provide the equivalent of about 0.0156 kg to 0.500 kg per hectare of active compound when applied to the plants through a spray nozzle operating at 40 psi for a predetermined time. After spraying, the plants are placed on greenhouse benches and are cared for in accordance with conventional greenhouse procedures. From four to five weeks after treatment, the seedling plants are examined and rated according to the rating system set forth below. Where more than one test is involved for a given compound, the data are averaged.
Plant species employed in these evaluations are reported by header abbreviation, common name and scientific name.
as §1

The subject of assay [5] is GLXMA (Soybean). The assay is described as follows: Preemergence herbicidal evaluation. The assay is classed as in vivo, Glycine max. The note with it: rated 4-5 weeks after treatment.
Excerpt: as §1, §2, §3

Assay [6] deals with SAGPY (Arrowhead (Pygmaea)). Nature of the assay: Postemergence weed control under flooded paddy conditions. The assay is classed as in vivo, Sagittaria pygmaea. The note with it: postemergence weeds. The procedure, abridged:
as §4

Assay [7] concerns MOOVA (Monochoria). Described as above. Conditions: postemergence weeds. The assay is classed as in vivo, Monochoria vaginalis. An outline of the steps: as §4
The mark [8] stands for this setting: rate 0.0313 kg/ha, 3-4 weeks after treatment.
Where [9] appears, read: rate 0.0625 kg/ha, 3-4 weeks after treatment.
[10] abbreviates: rate 0.1250 kg/ha, 3-4 weeks after treatment.
Setting [11] is: rate 0.2500 kg/ha, 3-4 weeks after treatment.
[12] abbreviates: rate 0.5000 kg/ha, 3-4 weeks after treatment.
Setting [13] is: Rate 0.0313 kg/ha, rated 3 to 4 weeks after treatment.
[14] abbreviates: Rate 0.0625 kg/ha, rated 3 to 4 weeks after treatment.
[15] abbreviates: Rate 0.1250 kg/ha, rated 3 to 4 weeks after treatment.
Setting [16] is: Rate 0.2500 kg/ha, rated 3 to 4 weeks after treatment.

`CC1SC(=Nc2cc(N3C(=O)C4=C(CCCC4)C3=O)c(F)cc2Cl)N(C)C1=O` (stereo not shown) [Compound 4]: the GLXMA herbicidal rating in assay [1] (rate 0.0313 kg/ha) came out at 2.0; in assay [1] (rate 0.0625 kg/ha) it was 2.5; in assay [1] (rate 0.1250 kg/ha), 4.5; in assay [1] (rate 0.2500 kg/ha) it was 4.5; in assay [1] (rate 0.5000 kg/ha), 4.5. Moreover, the “IPOSS preemergence herbicidal rating” value in assay [2] (rate 0.1250 kg/ha) worked out at 0.0; in assay [2] (rate 0.2500 kg/ha), 2.0; in assay [2] (rate 0.5000 kg/ha), 9.0. Further, the “Herbicidal rating ECHORC” value was 1.0 in assay [3] (setting [8]); 2.0 in assay [3] (setting [9]); 3.5 in assay [3] (setting [10]); 4.0 in assay [3] (setting [11]); 5.0 in assay [3] (setting [12]). For the same compound, the IPOSS herbicidal rating in assay [4] (rate 0.0313 kg/ha) is 0.0; in assay [4] (rate 0.0625 kg/ha), 0.0; in assay [4] (rate 0.1250 kg/ha), 0.0; in assay [4] (rate 0.2500 kg/ha), 1.0; in assay [4] (rate 0.5000 kg/ha), 4.0. In addition, the “GLXMA preemergence herbicidal rating” value was 0.0 in assay [5] (rate 0.1250 kg/ha), 2.0 in assay [5] (rate 0.2500 kg/ha) and 4.0 in assay [5] (rate 0.5000 kg/ha). For the same compound, the “Herbicidal rating SAGPY” value in assay [6] (setting [8]), in assay [6] (setting [9]), in assay [6] (setting [10]), in assay [6] (setting [11]) and in assay [6] (setting [12]) was 0.0 in each case. Besides, the “Herbicidal rating MOOVA” value in assay [7] (setting [8]) is reported as 1.0; in assay [7] (setting [9]), 3.5; in assay [7] (setting [10]), 4.0; in assay [7] (setting [11]), 5.5; in assay [7] (setting [12]), 8.0.

As for `CCOC(=O)CN1C(=O)C(Cc2ccccc2OC(C)C(=O)O)S/C1=N/c1cc(-n2c(=O)cc(C(F)(F)F)n(C)c2=O)c(F)cc1Cl` (stereo not shown) [Compound 114, 5-[o-(1-Carboxyethoxy)benzyl]-2-{{2-chloro-5-[3,6-dihydro-3-methyl-2,6-dioxo-4-(trifluoromethyl)-1(2H)-pyrimidinyl]-4-fluorophenyl}imino}-4-oxo-3-thiazolidineacetic acid, 3-ethyl ester], the “Herbicidal rating ECHORC” value in assay [3] (setting [13]), in assay [3] (setting [14]), in assay [3] (setting [15]) and in assay [3] (setting [16]) was 0.0 throughout. Moreover, the “Herbicidal rating SAGPY” value in assay [6] (setting [13]), in assay [6] (setting [14]), in assay [6] (setting [15]) and in assay [6] (setting [16]) was 0.0 throughout. The “Herbicidal rating MOOVA” value in assay [7] (setting [13]) was found to be 6.0; in assay [7] (setting [14]), 8.0; in assay [7] (setting [15]), 9.0; in assay [7] (setting [16]) it was 9.0.

Source of the values: US20020137929A1, “1 - (3-heterocyclylphenyl) isothiourea, -isourea, -guanidine and -amidine herbicidal agents” (Intellectual Property Department, BASF Aktiengesellschaft, priority 1998, published 2002).
